Measurements from PubChem BioAssay (NCI).
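These data come from cells grown in 96-well plates and exposed to compound for 48 hours at five concentrations. Abbreviation: GI50, concentration required for 50% inhibition of growth. TGI is the concentration that stops growth completely.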

Experiments:
Experiment in all cases: NCI anticancer screen, dose series, 48 h
[1] = tested on: UO-31 renal
[2] = tested on: LOX IMVI melanoma
[3] = tested on: HOP-92 NSCLC
[4] = tested on: HOP-62 NSCLC
[5] = tested on: NCI-H23 lung
[6] = tested on: MOLT-4 leukemia
[7] = tested on: NCI-H460 lung
[8] = tested on: HCC-2998 colon
[9] = tested on: ACHN renal
[10] = tested on: HCT-116 colon
[11] = tested on: OVCAR-8 ovarian
[12] = tested on: PC-3 prostate
[13] = tested on: UACC-257 melanoma
[14] = tested on: MCF7 breast
[15] = tested on: NCI-H522 lung
[16] = tested on: UACC-62 melanoma
[17] = tested on: MALME-3M melanoma
[18] = tested on: NCI/ADR-RES ovarian
[19] = tested on: OVCAR-5 ovarian
[20] = tested on: RPMI-8226 leukemia
[21] = tested on: M14 melanoma
[22] = tested on: COLO 205 colon
[23] = tested on: SF-539 CNS
[24] = tested on: SF-295 CNS
[25] = tested on: HS 578T breast
[26] = tested on: DU-145 prostate
[27] = tested on: TK-10 renal
[28] = tested on: A549 NSCLC
[29] = tested on: U251 CNS
[30] = tested on: SK-OV-3 ovarian
[31] = tested on: SK-MEL-5 melanoma
[32] = tested on: SNB-19 CNS
[33] = tested on: SR leukemia
[34] = tested on: SNB-75 CNS
[35] = tested on: MDA-MB-231 breast
[36] = tested on: HL-60(TB) leukemia
[37] = tested on: NCI-H226 lung
[38] = tested on: HT29 colon
[39] = tested on: HCT-15 colon
[40] = tested on: KM12 colon
[41] = tested on: RXF 393 renal
[42] = tested on: MDA-MB-435
[43] = tested on: K-562 leukemia
[44] = tested on: EKVX NSCLC
[45] = tested on: A498 renal
[46] = tested on: SK-MEL-28 melanoma
[47] = tested on: CAKI-1 renal
[48] = tested on: 786-0 renal
[49] = tested on: SN12C renal
[50] = tested on: OVCAR-3 ovarian
[51] = tested on: T-47D breast
[52] = tested on: SW-620 colon
[53] = tested on: SF-268 CNS
[54] = tested on: IGROV1 ovarian
[55] = tested on: SK-MEL-2 melanoma
[56] = tested on: CCRF-CEM leukemia
[57] = tested on: OVCAR-4 ovarian
[58] = tested on: BT-549 breast

In the case of `NC1=CC(=O)C(=O)c2ccccc21`, the GI50 [1] was 11.5 µM, the TGI [1] was 35.6 µM and the GI50 [2] was 15.9 µM. The TGI [2] was 39.7 µM, the GI50 [3] was 30 µM and the TGI [3] was 93.8 µM. It also gave a GI50 [4] of 18 µM, a TGI [4] of 40.7 µM and a GI50 [5] of 13.2 µM. The TGI [5] was 34.6 µM, the GI50 [6] was 22.4 µM and the TGI [6] was over 100 µM. For the same compound, the GI50 [7] was 33.8 µM, the TGI [7] was over 100 µM and the GI50 [8] was 43.9 µM. The TGI [8] was over 100 µM, the GI50 [9] was 16.2 µM and the TGI [9] was 50.1 µM. It also gave a GI50 [10] of 12.7 µM, a TGI [10] of 28 µM and a GI50 [11] of 14.8 µM. For the same compound, the TGI [11] was 47.3 µM, the GI50 [12] was 17.9 µM and the TGI [12] was 70.5 µM. For the same compound, the GI50 [13] was 5.63 µM, the TGI [13] was 18.2 µM and the GI50 [14] was 13.2 µM. It also gave a TGI [14] of 29.8 µM, a GI50 [15] of 16.6 µM and a TGI [15] of 38.2 µM. For the same compound, the GI50 [16] was 3.33 µM, the TGI [16] was 15.7 µM and the GI50 [17] was 11 µM. The TGI [17] was 25.7 µM, the GI50 [18] was 12.7 µM and the TGI [18] was 53.3 µM. The GI50 [19] was 18.9 µM, the TGI [19] was 41.1 µM and the GI50 [20] was 11.2 µM. The TGI [20] was 53.2 µM, the GI50 [21] was 9.59 µM and the TGI [21] was 21.3 µM. It also gave a GI50 [22] of 26.6 µM, a TGI [22] of over 100 µM and a GI50 [23] of 21.5 µM. For the same compound, the TGI [23] was 40.9 µM, the GI50 [24] was 12.7 µM and the TGI [24] was 33.4 µM. The GI50 [25] was 12.1 µM, the TGI [25] was 40.6 µM and the GI50 [26] was 17.9 µM. The TGI [26] was 45.4 µM, the GI50 [27] was 16.7 µM and the TGI [27] was 47.5 µM. It also gave a GI50 [28] of 28.2 µM, a TGI [28] of 97.6 µM and a GI50 [29] of 19.3 µM. For the same compound, the TGI [29] was 46.4 µM, the GI50 [30] was 47.6 µM and the TGI [30] was over 100 µM. It also gave a GI50 [31] of 14.7 µM, a TGI [31] of 28 µM and a GI50 [32] of 20.4 µM. For the same compound, the TGI [32] was 79.9 µM, the GI50 [33] was 23.3 µM and the TGI [33] was over 100 µM. The GI50 [34] was 13.8 µM, the TGI [34] was 27.1 µM and the GI50 [35] was 11 µM. The TGI [35] was 30.9 µM, the GI50 [36] was 11.9 µM and the TGI [36] was 43.8 µM. For the same compound, the GI50 [37] was 18.8 µM, the TGI [37] was 42.1 µM and the GI50 [38] was 31.9 µM. It also gave a TGI [38] of 94.3 µM, a GI50 [39] of 25.1 µM and a TGI [39] of over 100 µM. For the same compound, the GI50 [40] was 18.2 µM, the TGI [40] was 53.4 µM and the GI50 [41] was 24.3 µM. For the same compound, the TGI [41] was 71.5 µM, the GI50 [42] was 1.84 µM and the TGI [42] was 3.41 µM. For the same compound, the GI50 [43] was 20.6 µM, the TGI [43] was over 100 µM and the GI50 [44] was 18.3 µM. It also gave a TGI [44] of 55.8 µM, a GI50 [45] of 79.2 µM and a TGI [45] of over 100 µM. The GI50 [46] was 8.81 µM, the TGI [46] was 22.3 µM and the GI50 [47] was 19.7 µM. For the same compound, the TGI [47] was 53.3 µM, the GI50 [48] was 25 µM and the TGI [48] was 79.8 µM. The GI50 [49] was 2.77 µM, the TGI [49] was 17.4 µM and the GI50 [50] was 12.4 µM. For the same compound, the TGI [50] was 29.9 µM, the GI50 [51] was 14.2 µM and the TGI [51] was 46.2 µM. The GI50 [52] was 17.6 µM, the TGI [52] was 38.4 µM and the GI50 [53] was 18.8 µM. For the same compound, the TGI [53] was 62.3 µM, the GI50 [54] was 19.7 µM and the TGI [54] was 39.5 µM.

`Nc1ccccc1-n1c2c(c3ccccc3c1=O)C(=O)c1ccccc1-2` gave a TGI [1] of 33.9 µM, a TGI [2] of over 100 µM and a TGI [3] of 53.6 µM. For the same compound, the TGI [4] was 22.9 µM, the TGI [5] was 51.1 µM and the TGI [6] was over 100 µM. It also gave a TGI [7] of over 100 µM, a TGI [8] of over 100 µM and a TGI [9] of 18.3 µM. The TGI [10] was over 100 µM, the TGI [11] was 45.4 µM and the TGI [55] was 52.8 µM. It also gave a TGI [56] of over 100 µM, a TGI [12] of 97.4 µM and a TGI [13] of over 100 µM. It also gave a TGI [14] of over 100 µM, a TGI [15] of 25.6 µM and a TGI [16] of over 100 µM. The TGI [17] was 85.5 µM, the TGI [18] was 51.3 µM and the TGI [19] was over 100 µM. For the same compound, the TGI [20] was over 100 µM, the TGI [21] was over 100 µM and the TGI [22] was over 100 µM. The TGI [23] was 26.8 µM, the TGI [24] was 40.1 µM and the TGI [26] was over 100 µM. The TGI [28] was over 100 µM, the TGI [29] was 60.5 µM and the TGI [30] was 21.5 µM. It also gave a TGI [31] of over 100 µM, a TGI [32] of 23.8 µM and a TGI [34] of over 100 µM. The TGI [35] was over 100 µM, the TGI [36] was 41.6 µM and the TGI [37] was over 100 µM. It also gave a TGI [38] of over 100 µM, a TGI [39] of over 100 µM and a TGI [40] of over 100 µM. The TGI [42] was over 100 µM, the TGI [57] was 82.7 µM and the TGI [43] was over 100 µM. It also gave a TGI [44] of over 100 µM, a TGI [45] of over 100 µM and a TGI [46] of over 100 µM. The TGI [47] was 50.7 µM, the TGI [48] was 55.6 µM and the TGI [49] was over 100 µM. It also gave a TGI [50] of 55.1 µM, a TGI [52] of over 100 µM and a TGI [53] of 48.2 µM. It also gave a TGI [58] of 12.9 µM and a TGI [54] of over 100 µM.

With `O=C(C[n+]1ccn(CC(OCc2ccc(Cl)cc2Cl)c2ccc(Cl)cc2Cl)c1)c1ccc(F)cc1` (stereo not given) the GI50 [1] was 2.43 µM, the TGI [1] was 17 µM and the GI50 [3] was 1.27 µM. It also gave a TGI [3] of 2.84 µM, a GI50 [55] of 1.65 µM and a TGI [55] of 3.11 µM. The GI50 [12] was 1.55 µM, the TGI [12] was 2.91 µM and the GI50 [13] was 1.43 µM. The TGI [13] was 2.8 µM, the GI50 [18] was 16.5 µM and the TGI [18] was 57.5 µM. The GI50 [24] was 1.63 µM, the TGI [24] was 3.19 µM and the GI50 [25] was 1.6 µM. It also gave a TGI [25] of 3.72 µM, a GI50 [26] of 1.66 µM and a TGI [26] of 3.09 µM. It also gave a GI50 [39] of 4.65 µM, a TGI [39] of 67.6 µM and a GI50 [41] of 1.81 µM. The TGI [41] was 3.31 µM, the GI50 [42] was 1.31 µM and the TGI [42] was 2.72 µM. The GI50 [44] was 1.11 µM, the TGI [44] was 2.4 µM and the GI50 [45] was 1.42 µM. The TGI [45] was 3.36 µM, the GI50 [46] was 1.7 µM and the TGI [46] was 3.12 µM. For the same compound, the GI50 [47] was 2.05 µM, the TGI [47] was 18.3 µM and the GI50 [53] was 1.44 µM. It also gave a TGI [53] of 3.09 µM.
